Patent publication US20060153933A1 (priority 2002, published 2006)
Read-outs that look alike come from different tables or passages of the source.

Key:
[1] = test system: Plasmopara viticola (PLASVI); experiment: whole plant or invertebrate; type: in vivo; details: for pest or weed control at 0.62 ppm: 0.62 ppm alone
[2] = test system: Phytophthora infestans (PHYTIN); experiment: whole plant or invertebrate; type: in vivo; details: for pest or weed control at 1.85 ppm: read-out: % Disease Control (observed)
[3] = Plasmopara viticola, 48 h, read-out: % Disease Control (observed), 2DP, 1.85 ppm alone
[4] = Phytophthora infestans, 24 h, read-out: % Disease Control (observed), 1DP, 5.56 ppm alone
[5] = Phytophthora infestans, 24 h, read-out: % Disease Control (observed), 1DP, 0.62 ppm alone
[6] = Plasmopara viticola, 48 h, read-out: % Disease Control (observed), 2DP
[7] = PLASVI 2DP, applied alone at 5.56 ppm
[8] = PHYTIN 2DP, applied alone at 5.56 ppm

## COC(=O)CC(NC(=O)[C@@H](NC(=O)OC(C)C)C(C)C)c1ccc(Cl)cc1 (mixture of isomers) [Compound 1, methyl (±)RS-[3-(N-isopropoxycarbonyl-S-valinyl)amino]-3-(4-chlorophenyl)propanoate]
[1]; 2DP, 1.85 ppm alone
  % Disease Control (Observed): 5.3%
[2]; 2DP, 0.62 ppm alone
  % Disease Control (Observed): 7.0%
[2]; in vivo
  % Disease Control (Observed): 40.4%

## C[C@@]1(c2ccc(Oc3ccccc3)cc2)OC(=O)N(Nc2ccccc2)C1=O (racemic) [Famoxadone, famoxadone]
[1]; [3]
  pest or weed control at 1.85 ppm: 31.6%
[2]; Phytophthora infestans, 48 h
  pest or weed control at 1.85 ppm: 47.4%

## CO/C=C(/C(=O)OC)c1ccccc1Oc1cc(Oc2ccccc2C#N)ncn1 [Azoxystrobin, azoxystrobin]
[1]; 3DP, 1.85 ppm alone
  % Disease Control (Observed): 28.1%
[1]; 3DP, 5.56 ppm alone
  % Disease Control (Observed): 59.6%
[2]; 3DP, 5.56 ppm alone
  % Disease Control (Observed): 33.3%

## O=C1C2CC=CCC2C(=O)N1SC(Cl)(Cl)Cl (centres unmarked) [Captan, captan]
[2]; [4]
  pest or weed control at 5.56 ppm: 0%

## N#Cc1c(Cl)c(Cl)c(Cl)c(C#N)c1Cl [Chlorothalonil, chlorothalonil]
[1]; Plasmopara viticola, 24 h, read-out: % Disease Control (observed), 1DP, 1.85 ppm alone
  pest or weed control at 1.85 ppm: 0%
[2]; [4]
  pest or weed control at 5.56 ppm: 0%

## [Cl-].[Cu+2].[Cu+2].[OH-].[OH-].[OH-] [Cu oxychloride, copper oxychloride]
[1]; PLASVI 6DP, applied alone at 38.3 ppm
  % Disease Control (Observed): 3.5%
[2]; 3DP, 5.56 ppm alone
  % Disease Control (Observed): 17.5%
[2]; 3DP, 16.70 ppm alone
  % Disease Control (Observed): 24.6%
[2]; PHYTIN 6DP, applied alone at 12.8 ppm
  % Disease Control (Observed): 0%
[2]; PHYTIN 6DP, applied alone at 38.3 ppm
  % Disease Control (Observed): 22.8%
[2]; Table 10, PHYTIN (3DP) as printed, 16.70 ppm alone
  % Disease Control (Observed): 7.0%

## [Cu+2].[OH-].[OH-] [Cu(OH)2, copper hydroxide]
[1]; 3DP, 16.70 ppm alone
  % Disease Control (Observed): 10.5%
[2]; 3DP, 5.56 ppm alone
  % Disease Control (Observed): 14.0%

## Cc1ccc(-c2c(Cl)nc(C#N)n2S(=O)(=O)N(C)C)cc1 [Cyazofamid, cyazofamid]
[1]; Plasmopara viticola, 72 h, read-out: % Disease Control (observed), 3DP
  pest or weed control at 0.62 ppm: 7%
[2]; Phytophthora infestans, 72 h, read-out: % Disease Control (observed), 3DP, 0.62 ppm alone
  pest or weed control at 0.62 ppm: 82.5%

## CCNc1nc(CC)c(C(=O)NC(C#N)c2cccs2)s1 (centres unmarked) [Ethaboxam, ethaboxam]
[1]; 2DP, 1.85 ppm alone
  % Disease Control (Observed): 50.9%
[1]; 2DP, 5.56 ppm alone
  % Disease Control (Observed): 78.9%
[2]; 2DP, 0.62 ppm alone
  % Disease Control (Observed): 10.5%

## O=[N+]([O-])c1cc(C(F)(F)F)c(Cl)c([N+](=O)[O-])c1Nc1ncc(C(F)(F)F)cc1Cl [Fluazinam, fluazinam]
[1]; [3]
  pest or weed control at 1.85 ppm: 14%
[2]; Phytophthora infestans, 72 h
  pest or weed control at 1.85 ppm: 12.3%
[2]; Phytophthora infestans, 72 h, read-out: % Disease Control (observed), 3DP, 5.56 ppm alone
  pest or weed control at 5.56 ppm: 50.9%

## O=C1c2ccccc2C(=O)N1SC(Cl)(Cl)Cl [Folpet, folpet]
[1]; PLASVI 2DP, applied alone at 4.3 ppm
  % Disease Control (Observed): 1.8%
[1]; PLASVI 2DP, applied alone at 12.8 ppm
  % Disease Control (Observed): 22.8%
[1]; Plasmopara viticola, 24 h, read-out: % Disease Control (observed), 1DP, 5.56 ppm alone
  pest or weed control at 5.56 ppm: 0%
[2]; PHYTIN 2DP, applied alone at 4.3 ppm
  % Disease Control (Observed): 1.8%
[2]; PHYTIN 2DP, applied alone at 12.8 ppm
  % Disease Control (Observed): 5.3%
[2]; [5]
  pest or weed control at 0.62 ppm: 0%

## CC[C@H](CS(=O)(=O)[C@@H](C)c1ccc(C#N)cc1)NC(=O)Oc1ccc(F)cc1 [Formula IIIa, 4-fluorophenyl(1S)-1-({[(1S)-1-(4-cyanophenyl)ethyl]sulfonyl}methyl) propylcarbamate]
[1]; 4DP, 1.9 ppm alone
  % Disease Control (Observed): 14.0%
[1]; 4DP, 1.90 ppm alone
  % Disease Control (Observed): 14.00%
[1]; 4DP, 2.8 ppm alone
  % Disease Control (Observed): 76.3%
[2]; 4DP, 0.3 ppm alone
  % Disease Control (Observed): 19.3%
[2]; 4DP, 0.60 ppm alone
  % Disease Control (Observed): 10.50%
[2]; 4DP, 0.9 ppm alone
  % Disease Control (Observed): 73.7%
[2]; 4DP, 1.9 ppm alone
  % Disease Control (Observed): 78.9%
[2]; 4DP, 1.90 ppm alone
  % Disease Control (Observed): 78.90%

## CCO[PH](=O)O [Fosetyl-Al, fosetyl-Al]
[1]; 7DP, 1.85 ppm alone
  % Disease Control (Observed): 8.8%
[1]; 7DP, 5.56 ppm alone
  % Disease Control (Observed): 10.5%
[1]; 7DP, 16.70 ppm alone
  % Disease Control (Observed): 12.3%
[1]; PLASVI 6DP, applied alone at 33.3 ppm
  % Disease Control (Observed): 0%
[2]; PHYTIN 6DP, applied alone at 11.1 ppm
  % Disease Control (Observed): 0%
[2]; PHYTIN 6DP, applied alone at 33.3 ppm
  % Disease Control (Observed): 0%
[2]; in vivo
  % Disease Control (Observed): 0.0%

## COCC(=O)N(c1c(C)cccc1C)C(C)C(=O)OC (centres unmarked) [Metalaxyl, metalaxyl]
[1]; Plasmopara viticola, 72 h, read-out: % Disease Control (observed), 3DP, 1.90 ppm alone
  pest or weed control at 1.9 ppm: 15.8%
[1]; Plasmopara viticola, 72 h, read-out: % Disease Control (observed), 3DP, 5.60 ppm alone
  pest or weed control at 5.6 ppm: 21.1%
[2]; [4]
  pest or weed control at 5.56 ppm: 0%

## COCC(=O)N(c1c(C)cccc1C)N1CCOC1=O [Oxadixyl, oxadixyl]
[1]; Plasmopara viticola, 24 h, read-out: % Disease Control (observed), 1DP, 0.20 ppm alone (Formula III 0.00 ppm)
  pest or weed control at 0.2 ppm: 19.3%
[2]; [5]
  pest or weed control at 0.62 ppm: 0%
[2]; Phytophthora infestans, 24 h, read-out: % Disease Control (observed), 1DP, 1.90 ppm alone
  pest or weed control at 1.9 ppm: 24.6%

## CO/C=C(/C(=O)OC)c1ccccc1COc1cccc(C(F)(F)F)n1 [Picoxystrobin, picoxystrobin]
[1]; 3DP, 5.56 ppm alone
  % Disease Control (Observed): 61.4%
[2]; 3DP, 5.56 ppm alone
  % Disease Control (Observed): 59.6%

## CCCOC(=O)NCCCN(C)C [Propamocarb, propamocarb]
[1]; Plasmopara viticola, 48 h, read-out: % Disease Control (observed), 2DP, 5.56 ppm alone
  pest or weed control at 5.56 ppm: 0%
[2]; Phytophthora infestans, 48 h
  pest or weed control at 1.85 ppm: 1.8%
[2]; Phytophthora infestans, 48 h, read-out: % Disease Control (observed), 2DP, 0.62 ppm alone
  pest or weed control at 0.62 ppm: 0%

## COC(=O)N(OC)c1ccccc1COc1ccn(-c2ccc(Cl)cc2)n1 [Pyraclostrobin, pyraclostrobin]
[1]; Plasmopara viticola, 24 h, read-out: % Disease Control (observed), 1DP, Table 14, 1.85 ppm alone
  pest or weed control at 1.85 ppm: 0%
[1]; Plasmopara viticola, 24 h, read-out: % Disease Control (observed), 1DP, Table 14, 5.56 ppm alone
  pest or weed control at 5.56 ppm: 0%
[1]; [6]
  pest or weed control at 0.62 ppm: 61.4%
[2]; Phytophthora infestans, 48 h
  pest or weed control at 1.85 ppm: 78.9%
[2]; Phytophthora infestans, 48 h, read-out: % Disease Control (observed), 2DP, 5.56 ppm alone
  pest or weed control at 5.56 ppm: 89.5%

## CON=C(C(=O)OC)c1ccccc1CON=C(C)c1cccc(C(F)(F)F)c1 [Trifloxystrobin, trifloxystrobin]
[1]; [6]
  pest or weed control at 0.62 ppm: 1.8%
[1]; [3]
  pest or weed control at 1.85 ppm: 21.1%
[2]; Phytophthora infestans, 48 h
  pest or weed control at 1.85 ppm: 24.6%

## CCC(C)(NC(=O)c1cc(Cl)c(C)c(Cl)c1)C(=O)CCl (centres unmarked) [Zoxamide, zoxamide]
[1]; 4DP, 1.90 ppm alone
  % Disease Control (Observed): 5.30%
[1]; 4DP, 5.60 ppm alone
  % Disease Control (Observed): 57.90%
[1]; PLASVI 2DP, applied alone at 0.4 ppm
  % Disease Control (Observed): 3.5%
[1]; PLASVI 2DP, applied alone at 1.1 ppm
  % Disease Control (Observed): 21.1%
[1]; PLASVI 2DP, applied alone at 3.3 ppm
  % Disease Control (Observed): 36.8%
[1]; PLASVI 3DP, applied alone at 0.4 ppm
  % Disease Control (Observed): 3.5%
[1]; PLASVI 3DP, applied alone at 1.1 ppm
  % Disease Control (Observed): 17.5%
[1]; PLASVI 6DP, applied alone at 3.3 ppm
  % Disease Control (Observed): 10.5%
[2]; 4DP, 1.90 ppm alone
  % Disease Control (Observed): 55.30%
[2]; 4DP, 11.20 ppm alone
  % Disease Control (Observed): 19.30%
[2]; 4DP, 16.70 ppm alone
  % Disease Control (Observed): 34.90%
[2]; PHYTIN 2DP, applied alone at 0.4 ppm
  % Disease Control (Observed): 1.8%
[2]; PHYTIN 2DP, applied alone at 1.1 ppm
  % Disease Control (Observed): 14%
[2]; PHYTIN 3DP, applied alone at 1.1 ppm
  % Disease Control (Observed): 10.5%
[2]; PHYTIN 6DP, applied alone at 1.1 ppm
  % Disease Control (Observed): 7%
[2]; PHYTIN 6DP, applied alone at 3.3 ppm
  % Disease Control (Observed): 40.4%

## Maneb
[1]; PLASVI 3DP, applied alone at 16.70 ppm
  % Disease Control (Observed): 24.6%
[2]; PHYTIN 3DP, applied alone at 5.56 ppm
  % Disease Control (Observed): 14.0%
[2]; in vivo
  % Disease Control (Observed): 3.5%

## Metiram
[1]; PLASVI 2DP, applied alone at 1.85 ppm
  % Disease Control (Observed): 5.3%
[1]; [7]
  % Disease Control (Observed): 8.8%
[2]; [8]
  % Disease Control (Observed): 0.0%

## Propineb
[1]; [7]
  % Disease Control (Observed): 0.0%
[2]; [8]
  % Disease Control (Observed): 0.0%

## mancozeb
[1]; 1DP, 2.7 ppm alone
  % Disease Control (Observed): 14%
[1]; 1DP, 8.0 ppm alone
  % Disease Control (Observed): 33.3%
[1]; 4DP, 1.9 ppm alone
  % Disease Control (Observed): 0%
[1]; 4DP, 16.7 ppm alone
  % Disease Control (Observed): 12.3%
[1]; PLASVI 3DP, applied alone at 8.9 ppm
  % Disease Control (Observed): 17.5%
[2]; 4DP, 0.60 ppm alone
  % Disease Control (Observed): 5.3%
[2]; 4DP, 1.9 ppm alone
  % Disease Control (Observed): 8.8%
[2]; 4DP, 5.6 ppm alone
  % Disease Control (Observed): 26.3%
[2]; 4DP, 16.70 ppm alone
  % Disease Control (Observed): 40.4%
[2]; PHYTIN 3DP, applied alone at 8.9 ppm
  % Disease Control (Observed): 5.3%
